Biological target: T1, Bile acid receptor (Homo sapiens, UniProt Q96RI1)
T1 sequence (Q96RI1 whole entry): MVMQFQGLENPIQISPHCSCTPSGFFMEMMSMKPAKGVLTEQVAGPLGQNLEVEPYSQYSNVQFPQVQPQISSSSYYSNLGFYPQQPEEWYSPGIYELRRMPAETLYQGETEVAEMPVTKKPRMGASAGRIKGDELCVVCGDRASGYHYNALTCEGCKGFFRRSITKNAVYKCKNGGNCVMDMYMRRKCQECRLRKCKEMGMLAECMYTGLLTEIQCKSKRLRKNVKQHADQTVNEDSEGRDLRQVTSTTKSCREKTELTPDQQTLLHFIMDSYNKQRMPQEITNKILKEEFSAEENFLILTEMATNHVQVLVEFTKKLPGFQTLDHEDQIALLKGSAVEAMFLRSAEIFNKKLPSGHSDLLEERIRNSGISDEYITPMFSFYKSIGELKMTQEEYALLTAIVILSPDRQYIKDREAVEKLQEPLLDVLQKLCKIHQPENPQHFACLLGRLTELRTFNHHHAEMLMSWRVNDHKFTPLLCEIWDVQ
Test: FXR Reporter Assay kit purchased from Indigo Bioscience (Catalogue number: IB00601) to determine the potency and efficacy of compound developed by Enanta that can induce FXR activation. The principle application of this reporter assay system is to quantify functional activity of human FXR. The assay utilizes non-human mammalian cells, CHO (Chinese hamster ovary) cells engineered to express human NR1H4 protein (referred to as FXR). Reporter cells also incorporate the cDNA encoding beetle luciferase which catalyzes the substrates and yields photon emission. Luminescence intensity of the reaction is quantified using a plate-reading luminometer, Envision. Reporter Cells include the luciferase reporter gene functionally linked to an FXR responsive promoter. Thus, quantifying changes in luciferase expression in the treated reporter cells provides a sensitive surrogate measure of the changes in FXR activity. […] The assay is according to the manufacturer's instructions. In brief, the assay was performed in white, 96 well plates using final volume of 100 μl containing cells with different doses of compounds. Retrieve Reporter Cells from −80° C. storage. Perform a rapid thaw of the frozen cells by transferring a 10 ml volume of 37° C. cell recovery medium into the tube of frozen cells. Recap the tube of Reporter Cells and immediately place it in a 37° C. water bath for 5-10 minutes. […]
Assay type: cell-based

- EC50: < 0.1 µM
Structure (SMILES): CN(Cc1ccc(C(=O)NS(=O)(=O)N(C)C)cc1)c1ccc(OCc2c(-c3c(Cl)cccc3Cl)noc2C2CC2)nc1C(F)(F)F

Reference: ChEMBL document CHEMBL5725943, “Isoxazole derivatives as FXR agonists and methods of use therof” (2018)
